The values that follow come from US20060223812A1, “Treating neurodegenerative conditions” (MAX-PLANCK-GESELLSCHAFT ZUR FORDERUNGDER WISSENSCHAFTEN, …, priority 2004, published 2006).

One experiment deals with T1, PHFs from K19 (Homo sapiens, UniProt P10636).
T1 construct: construct K19 containing three repeats; made in house; host or cells: E. coli
Kind of experiment: Thioflavine S assay, depolymerisation of pre-formed PHFs, K19. The experiment is classed as biochemical. On the procedure: Depolymerisation of PHFs was monitored by the thioflavine S fluorescence. 60 μM of each compound was tested for its ability to depolymerise pre-formed PHFs. 50 mM NH4Ac, 10 μM PHF (K19), 60 μM compound and 5 μM heparin were mixed in 50 μl volume in a 384 well plate (black microtiter 384 plate round well, ThermoLabsystems, Dreiich, Germany) and incubated overnight at 37° C. As a control the reaction mixture without compound was treated in the same way.
After incubation thioflavine S was added to the buffer to a final concentration of 20 μM and the signal was measured at excitation at 440 nm and emission at 521 nm in a spectrofluorimeter (Ascent; Labsystems, Frankfurt).
(§1) The ThS assay was used to analyse the ability of the five compounds (see Example 4) to depolymerise pre-formed PHFs made from the repeat domain constructs K19 and K18 as well as from isoforms htau23 and htau24, containing 3 or 4 repeats, respectively.
(§2) The depolymerisation of K19 filaments (FIG. 4A) followed a similar concentration dependence as the inhibition experiment, with consistently similar or slightly higher DC50 values than the corresponding IC50 concentrations (Table 2). The ratios of IC50/DC50 range from 0.2-1.2. […] Here, too, the concentration dependence for K19 was steeper than for K18 (compare FIGS. 4A, B), similar to that of assembly inhibition (FIGS. 2A, B).
(§3) Tau constructs and isoforms K19, K18, hTau23, hTau24 (10 μM) were first aggregated into PHFs for 48 hours in the presence of 2.5 μM heparin (except K18/ΔK280) and the polymers separated from the soluble tau by centrifugation of 1 h at 100,000 g, redissolved and then exposed to the inhibitors overnight at 37° C. at the indicated concentrations (range 0.001-200 μM). The compounds are capable of disassembling PHFs with varying efficiencies (see Table 2).

The target in another experiment is T2, PHFs from K18 (Homo sapiens, UniProt P10636).
T2 construct: made in house; host or cells: E. coli
T2 sequence (P10636 561-685 limits assumed): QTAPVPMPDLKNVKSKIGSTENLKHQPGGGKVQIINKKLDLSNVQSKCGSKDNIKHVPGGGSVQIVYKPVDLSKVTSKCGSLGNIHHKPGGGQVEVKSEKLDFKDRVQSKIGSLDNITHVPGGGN
Kind of experiment: Thioflavine S assay, depolymerisation of pre-formed PHFs, K18. The experiment is classed as biochemical.
Excerpt: as §1, §2, §3

In a further experiment the test system is PHFs from K18/ΔK280. The experiment in a line: Thioflavine S assay, depolymerisation of pre-formed PHFs, K18/ΔK280 without heparin. The experiment is classed as biochemical, human. Particulars: ThS fluorescence, PHFs made without heparin. On the procedure: as §1
The higher DC50 values for K18/ΔK280 point to the higher stability of PHFs formed by this mutant.
as §3

A further experiment deals with T3, Aβ1-40 peptide (Homo sapiens, UniProt P05067).
T3 construct: Commercial human Aβ1-40 was obtained from Calbiochem; purchased Calbiochem
T3 sequence (P05067 672-711): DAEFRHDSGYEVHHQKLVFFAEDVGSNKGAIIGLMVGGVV
Kind of experiment: Aβ fibre aggregation inhibition (thioflavine T). The note with it: 60 μM compound. The experiment is classed as biochemical. How it is done:
Besides the activity of the compounds towards tau fibres, their specificity is an important issue, i.e. the ability to discriminate between different types of aggregates. Therefore, an analysis of the influence of the compounds (60 μM) on amyloid fibrils made from the Aβ1-40 peptide, both in terms of inhibition of de novo filament formation and depolymerisation was performed (FIGS. 8A-B). These fibres are also abundant in Alzheimer brain and contain a core of cross-β-structure, but are located outside the cells, in contrast to the intracellular PHFs.
Commercial human Aβ1-40 was obtained from Calbiochem (Schwalbach, Germany) and stored at −20° C. The AD peptide was routinely dissolved in 100% DMSO to obtain a 2 mM stock solution, which was subsequently stored frozen at −20° C. 5 μl from the 2 mM Aβ stock solution was added to 90 μl of 25 mM phosphate buffer containing 120 mM NaCl, and 0.02% sodium azide, final pH 7.4 and 5 μl of 100% DMSO so that the final DMSO concentration was 10% v/v, and the protein concentration was adjusted to 100 μM. Incubations were at room temperature. In order to accelerate aggregation tubes were put on a lab shaker and agitated at moderate speed. For analysis 5 μl of this solution were added to 45 μl 10 mM phosphate buffer containing 6 μM thioflavine T, pH 6.0, after 30 minutes incubation at room temperature the fluorescence was measured at 504 nm emission by an excitation of 409 nm. To correlate fibril morphology with the fluorescence signal, aliquots of the Aβ1-40 solutions were simultaneously prepared for electron microscopy. The inhibition of fibril formation and disassembly of pre-formed Aβ-fibrils were carried out in triplicates with 60 μM compound and 10 μM protein.
Aβ peptide 1-40 (10 μM) was incubated with moderate shaking overnight at room temperature and incubated with various compounds (60 μM) overnight.

Where [1] appears, read: ThS fluorescence, overnight 37° C., read-out: Depolymerisation of PHFs DC50, K19.
The mark [2] stands for this setting: ThS fluorescence, overnight 37° C., read-out: Depolymerisation of PHFs DC50, K18.

Where two headings read alike, the source gives them in different places.

T1 sequence (P10636 with tags, fused parts or gaps isoform P10636-2 limits assumed): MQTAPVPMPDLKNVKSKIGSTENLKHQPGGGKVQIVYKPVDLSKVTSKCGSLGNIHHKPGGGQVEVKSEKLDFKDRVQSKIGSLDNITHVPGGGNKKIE

What is called inhibition is the share of the control response that was lost under treatment. Take `O=C(c1ccccc1)c1ccc(O)c(O)c1O` [PHF005, 1-Phenyl-1-(2,3,4-trihydroxy-phenyl)-methanone]: the DC50 at PHFs from K19 (setting [1]) was 9.4 µM; on PHFs from K18 (setting [2]), 20.8 µM; in the experiment with PHFs from K18/ΔK280, more than 100 µM. Further, in the experiment with PHFs from K18/ΔK280, the “Depolymerisation of PHFs DC50, K18/ΔK280” value was “not accurately detectable”. For the same compound, the inhibition at 60 µM on Aβ1-40 peptide (10 μM Aβ1-40, read-out: inhibition of Aβ filament formation) was approximately 50%.

Take `O=C1c2ccc(O)c(O)c2C(=O)c2c(O)ccc(O)c21` [PHF016, 1,2,5,8-Tetrahydroxy-anthraquinone]: the DC50 at PHFs from K19 (setting [1]) was 7.8 µM; at PHFs from K18 (setting [2]) it was 7.3 µM; with PHFs from K18/ΔK280, more than 60 µM. Besides, the “Depolymerisation of PHFs DC50, K18/ΔK280” value with PHFs from K18/ΔK280 is reported as “not accurately detectable”. Also, the “inhibition of Aβ fibre aggregation” value against Aβ1-40 peptide is given as “most efficient”.

`COc1cccc2c1C(=O)c1c(O)c3c(c(O)c1C2=O)CC(O)(C(C)=O)CC3OC1CC(N)C(O)C(C)O1` (stereo not drawn) [Daunorubicin, 8-Acetyl-10-(4-amino-5-hydroxy-6-methyl-tetrahydro-pyran-2-yloxy)-6,8,11-trihydroxy-1-methoxy-7,8,9,10-tetrahydro-naphthacene-5,12-dione, reference compound]: the results for the DC50 on PHFs from K19 (setting [1]), at PHFs from K18 (setting [2]) and in the experiment on PHFs from K18/ΔK280 were 3.1 µM, 4 µM and 7.7 µM, respectively. The “inhibition of Aβ fibre aggregation” value on Aβ1-40 peptide is given as “most efficient”.

`COc1cccc2c1C(=O)c1c(O)c3c(c(O)c1C2=O)CC(O)(C(=O)CO)CC3OC1CC(N)C(O)C(C)O1` (stereo not drawn) [Adriamycin, 10-(4-Amino-5-hydroxy-6-methyl-tetrahydro-pyran-2-yloxy)-6,8,11-trihydroxy-8-(2-hydroxyethanoyl)-1-methoxy-7,8,9,10-tetrahydro-naphthacene-5,12-dione, reference compound]: the DC50 came out at 27 µM on PHFs from K19 (read-out: Depolymerisation of PHFs DC50, K19, ThS fluorescence, overnight 37° C.); 4.3 µM at PHFs from K18 (read-out: Depolymerisation of PHFs DC50, K18, ThS fluorescence, overnight 37° C.); 22 µM in the experiment on PHFs from K18/ΔK280.

`Cc1cc(O)c2c(c1)C(=O)c1cc(O)cc(O)c1C2=O` [Emodin, 1,3,8-Trihydroxy-6-methyl-anthraquinone]: the figures for the DC50 at PHFs from K19 (setting [1]), at PHFs from K18 (setting [2]) and in the experiment on PHFs from K18/ΔK280 were 2 µM, 2 µM and 2.7 µM, respectively. For the same compound, the “inhibition of Aβ fibre aggregation” value against Aβ1-40 peptide is reported as “most efficient”.
